Read-outs that look alike come from different tables or passages of the source. A value given as a limit tells only on which side of the number the result lay.

This is an account of results in US7153853B2, “Heterocyclic compounds and antitumor drugs containing the same as the active ingredient” (Zenyaku Kogyo Kabushiki Kaisha, priority 2002, dated 2006).

In one series the test system is MCF-7 cells. Briefly: Test 1: growth inhibition of MCF-7 human breast cancer cells. The series is classed as cell-based. As to conditions: read-out: GI50 (50% growth inhibition concentration). The protocol:
Used in the test were MCF-7 cells which were established from human breast cancer and were cultured routinely under the conditions of 37° C. and 5% CO2, in MEM medium supplemented with 10% fetal calf serum, 25 mM of HEPES and 0.1 mg/ml of kanamycin. The MCF-7 cells in a logarithmic growth phase were treated with trypsin/EDTA to prepare single cell suspension adjusted to 4.0×10^4 cells/ml in MEM medium (supplemented with 10% fetal calf serum, 25 mM of HEPES and 0.1 mg/ml of kanamycin). Test compounds were dissolved in DMSO and diluted with RPMI 1640 medium (supplemented with 10% fetal calf serum, 25 mM of HEPES and 0.1 mg/ml of kanamycin) to a concentration of 2.0×10^−9−2.0×10^−4 M.
The cell suspension was filled in a 96-wells microplate at a rate of 0.1 ml per well and was cultured for 24 hours so as to make the cells adhered to the microplate. Then, it was added with 0.1 ml of the sample solution and cultured at 37° C. for 72 hours in 5% CO2.
50% Growth inhibition concentrations (GI50 μM) were calculated from growth inhibitions at various sample concentrations.

The subject of series [1] is human colonic cancer WiDr. Briefly: Test 2: human colonic cancer WiDr transplanted subcutaneously in nude mice, relative tumor growth T/C. The format is in vivo, BALB/c nude mice. The note with it: 200 mg/kg intraperitoneally, once a day, six times a week, two weeks; effective (+) = T/C less than 50% and Mann-Whitney significant at one-sided 1%. An excerpt: Mutant BALB/c nude mice were used for routine culture of 2-mm-square piece of human colonic cancer WiDr which was transplanted subcutaneously into left breast of each of the mice. The mice were separated for testing into groups each of five mice at the time of the tumor in its logarithmic growth phase. The samples prepared by dissolving test compounds in physiological saline solution or suspending them in 1% hydroxypropyl cellulose (HPC), using an agate mortar, were intraperitoneally administered at a rate of 200 mg/kg, once a day and six times a week in total, for two weeks. Major and minor axes of the tumor mass were measured on a daily basis to calculate tumor volume. […] As a result, the compound according to the present invention was effective whereas the comparative compound A was ineffective.

Setting [2] is: Homo sapiens, MCF7, cultured 72 hours with sample.

As for `c1cn(-c2nc(N3CCOCC3)nc(N3CCOCC3)n2)cn1` [compound C, 2-(imidazol-1-yl)-4,6-dimorpholino-1,3,5-triazine, reference compound], in the series on MCF-7 cells (setting [2]), the GI50 came out at 20000 nM.
The melting point is the temperature of the solid-liquid transition. In the case of `CN1CCC(N(C)c2nc(N3CCOCC3)nc(-n3c(C(F)F)nc4c(Cl)cc(N)cc43)n2)CC1`, the melting point is 194 °C (dec.).
Regarding `CN(C)c1nc(N(C)C)nc(N(C)C)n1` [compound D, hexamethylmelamine, reference compound], the GI50 with MCF-7 cells (setting [2]) was over 100000 nM.
As for `OCC1CCCN1c1nc(N2CCOCC2)nc(-n2c(C(F)F)nc3c(O)cccc32)n1` (stereo not drawn) [compound 5, 2-(2-difluoromethyl-4-hydroxybenzimidazol-1-yl)-4-(2-hydroxymetylpyrrolidin-1-yl)-6-morpholino-1,3,5-triazine], the GI50 with MCF-7 cells (cultured 72 hours with sample) was determined as 60 nM.
Consider `Nc1cc(Cl)c2nc(C(F)F)n(-c3nc(N4CCOCC4)nc(N4CCCC4CO)n3)c2c1` (stereo not drawn) [compound 3, 2-(6-amino-4-chloro-2-difluoromethylbenzimidazol-1-yl)-4-(2-hydroxymethylpyrrolidin-1-yl)-6-morpholino-1,3,5-triazine], for which the melting point is 256 °C (dec.). Besides, in the series with MCF-7 cells (setting [2]), the GI50 was 270 nM.
Take `Cc1nc2ccccc2n1-c1nc(N2CCOCC2)nc(N2CCOCC2)n1` [compound B, 2-(2-methylbenzimidazol-1-yl)-4,6-dimorpholino-1,3,5-triazine, reference compound]: the GI50 in the series with MCF-7 cells (setting [2]) is 3700 nM.
Consider `Oc1ccc2c(nc(C(F)F)n2-c2nc(N3CCOCC3)nc(N3CCOCC3)n2)c1Cl` [compound 6, 2-(4-chloro-2-difluoromethyl-5-hydroxybenzimidazol-1-yl)-4,6-dimorpholino-1,3,5-triazine], for which the melting point was over 250 °C. Also, the GI50 in the series on MCF-7 cells (setting [2]) amounted to 80 nM.
Compound `OCC1CCCN1c1cc(N2CCOCC2)nc(-n2c(C(F)F)nc3c(O)cccc32)n1` (stereo not drawn) [compound 1, 2-(2-difluoromethyl-4-hydroxybenzimidazol-1-yl)-4-(2-hydroxymethylpyrrolidin-1-yl)-6-morpholinopyrimidine] gave a melting point of 195 to 198 °C. Also, the GI50 in the series on MCF-7 cells (setting [2]) is 70 nM.
As to `C[C@@H]1OCCN(c2cc(N3CCOCC3)nc(-n3cnc4ccccc43)n2)[C@H]1C` (relative stereo) [compound A, 2-(benzimidazol-1-yl)-4-(trans-2,3-dimethylmorpholino)-6-morpholinopyrimidine, reference compound], the “antitumor effect judged from T/C (%) of the last day” value in series [1] was “ineffective”. Moreover, the GI50 in the series on MCF-7 cells (setting [2]) amounted to 2200 nM.
Turning to `CC1(C)CN(c2nc(N3CCOCC3)nc(-n3c(C(F)F)nc4c(Cl)cc(N)cc43)n2)CCO1` [compound 2, 2-(6-amino-4-chloro-2-difluoromethylbenzimidazol-1-yl)-4-(2,2-dimethylmorpholino)-6-morpholino-1,3,5-triazine], the melting point is 238 °C (dec.). Besides, the GI50 with MCF-7 cells (setting [2]) was 80 nM.
